Where two headings read alike, the source gives them in different places.
Tests used:
SARS-Cov-2 3CLpro = target: T1, SARS-Cov-2 3CLpro (Severe acute respiratory syndrome coronavirus 2, UniProt P0DTD1); assay: biochemical; settings: 3CLpro, 30 mins preincubation, SAMDI-MS; read-out: SARS-Cov-2 IC50 (class)
T1 construct: 3CLpro and HRV3C was added using a Multidrop Combi

HRV3C = target: T2, HRV3C (Human rhinovirus 14, UniProt P03303); assay: biochemical; set-up: species or system HRV; settings: HRV3C, 30 mins preincubation, SAMDI-MS; read-out: HRV IC50 (bound)
T2 construct: 3CLpro and HRV3C was added using a Multidrop Combi

[1] = tested on: human beta-coronavirus OC43; assay: OC43 coronavirus antiviral assay in HeLa cells (cytopathic effect, cell-titer-glo); assay type: cell-based; settings: Betacoronavirus 1, OC43, HeLa, 144 h, 6 days at 33° C.
[2] = tested on: B.1.1.7 lineage SARS-CoV-2; assay: microbe, parasite or virus in culture; assay type: cell-based; settings: Severe acute respiratory syndrome coronavirus 2, 96 h; read-out: A549-dual_ACE2_TMPRSS2 (EC50)
human cathepsin L = target: T3, human cathepsin L (Homo sapiens, UniProt P07711); assay: Cathepsin L assay (Z-FR-AMC fluorescence); assay type: biochemical; settings: 10 pM human cathepsin L, 30 mins preincubation, Z-FR-AMC 2 μM
T3 construct: purchased R&D Systems
Description: For the cathepsin L assay, 10 pM of human cathepsin L (R&D Systems; Minneapolis, MN) was preincubated for 30 mins with test compounds. Reactions were initiated by the addition of a peptide substrate Z—FR-AMC (final concentration 2 μM, Anaspec; Fremont, CA). Fluorescence was measured at 2-minute intervals for 30 mins using a 355/460 excitation/emission filter module on an Envision plate reader (Perkin Elmer; Waltham, MA). The IC50 values were calculated for each assay by fitting the curves using a four-parameter equation in GraphPad Prism.

T2 sequence (P03303 1538-1719): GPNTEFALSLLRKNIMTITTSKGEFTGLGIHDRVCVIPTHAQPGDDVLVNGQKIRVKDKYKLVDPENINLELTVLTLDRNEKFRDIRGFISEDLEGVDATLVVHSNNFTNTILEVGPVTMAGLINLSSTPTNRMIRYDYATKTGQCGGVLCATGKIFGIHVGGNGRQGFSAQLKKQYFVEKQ
T3 sequence (P07711 114-333): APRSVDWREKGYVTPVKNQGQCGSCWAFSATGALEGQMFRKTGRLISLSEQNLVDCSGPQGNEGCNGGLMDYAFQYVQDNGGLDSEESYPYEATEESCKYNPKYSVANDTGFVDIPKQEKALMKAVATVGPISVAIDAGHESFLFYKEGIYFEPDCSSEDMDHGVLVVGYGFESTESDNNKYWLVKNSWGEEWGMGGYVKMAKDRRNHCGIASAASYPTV

Structure (SMILES) | IC50 (SARS-Cov-2 3CLpro) [nM] | IC50 (HRV3C) [nM] | EC50 ([1]; read-out: EC50 (class)) [nM] | EC50 [2] [nM] | IC50 (human cathepsin L) [nM] | EC50 ([1]; read-out: EC50 (bound)) [nM]
CC(C)(C)[C@H](NC(=O)C(F)(F)C(F)(F)F)C(=O)N1C[C@H]2[C@@H]([C@H]1C(=O)N[C@H](C#N)C[C@@H]1CCNC1=O)[C@H]1C=C[C@@H]2C1 [Compound 76, (1S,3aR,4S,7R,7aS)-N-((S)-1-cyano-2-((S)-2-oxopyrrolidin-3-yl)ethyl)-2-((S)-3,3-dimethyl-2-(2,2,3,3,3-pentafluoropropanamido)butanoyl)-2,3,3a,4,7,7a-hexahydro-1H-4,7-methanoisoindole-1-carboxamide] | < 20 | > 10000 | < 100 | < 100 | ≥ 10000 | –
CC(C)(C)[C@H](NC(=O)C(F)(F)F)C(=O)N1C[C@H]2[C@@H]([C@H]1C(=O)N[C@H](C#N)C[C@@H]1Oc3ccncc3NC1=O)[C@H]1C=C[C@@H]2C1 [Compound 109, (1S,3aR,4S,7R,7aS)-N-((S)-1-cyano-2-((S)-3-oxo-3,4-dihydro-2H-pyrido[4,3-b][1,4]oxazin-2-yl)ethyl)-2-((S)-3,3-dimethyl-2-(2,2,2-trifluoroacetamido)butanoyl)-2,3,3a,4,7,7a-hexahydro-1H-4,7-methanoisoindole-1-carboxamide] | < 20 | > 500 | < 100 | < 100 | ≥ 10000 | –
CC(C)(C)[C@H](NC(=O)C(F)F)C(=O)N1C[C@H]2[C@@H]([C@H]1C(=O)N[C@H](C#N)C[C@@H]1CCNC1=O)[C@H]1C=C[C@@H]2C1 [Compound 72, (1S,3aR,4S,7R,7aS)-N-((S)-1-cyano-2-((S)-2-oxopyrrolidin-3-yl)ethyl)-2-((S)-2-(2,2-difluoroacetamido)-3,3-dimethylbutanoyl)-2,3,3a,4,7,7a-hexahydro-1H-4,7-methanoisoindole-1-carboxamide] | < 20 | > 10000 | < 100 | < 100 | ≥ 10000 | –
CC(C)(C)[C@H](NC(=O)C1(F)CCC1)C(=O)N1C[C@H]2[C@@H]([C@H]1C(=O)N[C@H](C#N)C[C@@H]1CCNC1=O)[C@H]1C=C[C@@H]2C1 [Compound 65, (1S,3aR,4S,7R,7aS)-N-((S)-1-cyano-2-((S)-2-oxopyrrolidin-3-yl)ethyl)-2-((S)-2-(1-fluorocyclobutane-1-carboxamido)-3,3-dimethylbutanoyl)-2,3,3a,4,7,7a-hexahydro-1H-4,7-methanoisoindole-1-carboxamide] | < 20 | > 10000 | < 100 | < 100 | ≥ 10000 | –
CC(C)(C)[C@H](NC(=O)C(F)(F)F)C(=O)N1C[C@H]2[C@@H]([C@H]1C(=O)N[C@H](C#N)C[C@@H]1OCCNC1=O)[C@H]1C=C[C@@H]2C1 [Compound 114, (1S,3aR,4S,7R,7aS)-N-((S)-1-cyano-2-((S)-3-oxomorpholin-2-yl)ethyl)-2-((S)-3,3-dimethyl-2-(2,2,2-trifluoroacetamido)butanoyl)-2,3,3a,4,7,7a-hexahydro-1H-4,7-methanoisoindole-1-carboxamide] | < 20 | > 500 | < 100 | < 100 | ≥ 10000 | –
CC(C)(C)[C@H](NC(=O)C(C)(C)C(F)(F)F)C(=O)N1C[C@H]2[C@@H]([C@H]1C(=O)N[C@H](C#N)C[C@@H]1CCNC1=O)[C@H]1C=C[C@@H]2C1 [Compound 75] | < 20 | > 10000 | 100 to 1000 | < 100 | ≥ 10000 | –
CC(C)(C)[C@H](NC(=O)C12CC(C1)C2)C(=O)N1C[C@H]2[C@@H]([C@H]1C(=O)N[C@H](C#N)C[C@@H]1CCNC1=O)[C@H]1C=C[C@@H]2C1 [Compound 66, (1S,3aR,4S,7R,7aS)-2-((S)-2-(bicyclo[1.1.1]pentane-1-carboxamido)-3,3-dimethylbutanoyl)-N-((S)-1-cyano-2-((S)-2-oxopyrrolidin-3-yl)ethyl)-2,3,3a,4,7,7a-hexahydro-1H-4,7-methanoisoindole-1-carboxamide] | < 20 | > 10000 | 100 to 1000 | 100 to 1000 | ≥ 10000 | –
CC(C)(F)C(=O)N[C@H](C(=O)N1C[C@H]2[C@@H]([C@H]1C(=O)N[C@H](C#N)C[C@@H]1CCNC1=O)[C@H]1C=C[C@@H]2C1)C(C)(C)C [Compound 74] | < 20 | > 10000 | < 100 | < 100 | ≥ 10000 | –
CC(C)(C)[C@H](NC(=O)CC(F)(F)F)C(=O)N1C[C@H]2[C@@H]([C@H]1C(=O)N[C@H](C#N)C[C@@H]1OCCNC1=O)[C@H]1C=C[C@@H]2C1 [Compound 132] | < 20 | > 500 | < 100 | < 100 | ≥ 10000 | –
C[C@@H](OCC1CC1)[C@H](NC(=O)C(F)(F)F)C(=O)N1C[C@H]2[C@@H]([C@H]1C(=O)N[C@H](C#N)C[C@@H]1CCNC1=O)[C@H]1C=C[C@@H]2C1 [Example 99] | < 20 | > 500 | < 100 | < 100 | ≥ 10000 | –
CC(F)(F)C(=O)N[C@H](C(=O)N1C[C@H]2[C@@H]([C@H]1C(=O)N[C@H](C#N)C[C@@H]1CCNC1=O)[C@H]1C=C[C@@H]2C1)C(C)(C)C [Compound 73] | < 20 | > 10000 | < 100 | < 100 | ≥ 10000 | –
CC(C)(C)[C@H](NC(=O)C(F)(F)F)C(=O)N1C[C@H]2[C@@H]([C@H]1C(=O)N[C@H](C#N)C[C@@H]1CCNC1=O)[C@H]1C=C[C@@H]2C1F (stereo in doubt) [Example 91, (1S,3aS,4S,7R,7aR,8S)—N-((S)-1-cyano-2-((S)-2-oxopyrrolidin-3-yl)ethyl)-2-((S)-3,3-dimethyl-2-(2,2,2-trifluoroacetamido)butanoyl)-8-fluoro-2,3,3a,4,7,7a-hexahydro-1H-4,7-methanoisoindole-1-carboxamide] | < 20 | > 500 | < 100 | < 100 | ≥ 10000 | –
CC(C)(C)[C@H](NC(=O)C(F)(F)F)C(=O)N1C[C@@H]2[C@@H]([C@@H]3C=C[C@H]2CC3)[C@@H]1C(=O)N[C@H](C#N)C[C@@H]1CCNC1=O (relative stereo) [Compound 59a, (1R*,3aS*,4R*,7S*,7aR*)-N-((S)-1-cyano-2-((S)-2-oxopyrrolidin-3-yl)ethyl)-2-((S)-3,3-dimethyl-2-(2,2,2-trifluoroacetamido)butanoyl)-2,3,3a,4,7,7a-hexahydro-1H-4,7-ethanoisoindole-1-carboxamide] | 200 to 2000 | > 10000 | – | 1000 to 10000 | ≥ 10000 | > 10000
CC(F)(F)[C@H](NC(=O)C(F)(F)F)C(=O)N1C[C@H]2[C@@H]([C@H]1C(=O)N[C@H](C#N)C[C@@H]1CCNC1=O)[C@H]1C=C[C@@H]2C1 [Compound 133] | < 20 | > 500 | < 100 | 100 to 1000 | ≥ 10000 | –
C=CC1([C@H](NC(=O)C(F)(F)F)C(=O)N2C[C@H]3[C@@H]([C@H]2C(=O)N[C@H](C#N)C[C@@H]2CCNC2=O)[C@H]2C=C[C@@H]3C2)CCC1 [Compound 68, (1S,3aR,4S,7R,7aS)-N-((S)-1-cyano-2-((S)-2-oxopyrrolidin-3-yl)ethyl)-2-((S)-2-(2,2,2-trifluoroacetamido)-2-(1-vinylcyclobutyl)acetyl)-2,3,3a,4,7,7a-hexahydro-1H-4,7-methanoisoindole-1-carboxamide] | < 20 | > 10000 | < 100 | < 100 | ≥ 10000 | –
CC(C)(C)[C@H](NC(=O)C(F)(F)F)C(=O)N1C[C@H]2[C@@H]([C@H]1C(=O)N[C@H](C#N)C[C@@H]1CCNC1=O)[C@H]1C=C[C@@H]2C1(F)F [Example 82, (1S,3aS,4S,7R,7aR)—N-((S)-1-cyano-2-((S)-2-oxopyrrolidin-3-yl)ethyl)-2-((S)-3,3-dimethyl-2-(2,2,2-trifluoroacetamido)butanoyl)-8,8-difluoro-2,3,3a,4,7,7a-hexahydro-1H-4,7-methanoisoindole-1-carboxamide] | < 20 | > 10000 | < 100 | < 100 | ≥ 10000 | –
CC(C)(C)[C@H](NC(=O)C(F)(F)F)C(=O)N1C[C@H]2[C@@H]([C@H]1C(=O)N[C@H](C#N)C[C@@H]1CCNC1=O)[C@H]1CC[C@@H]2O1 (relative stereo) [Compound 58b] | 200 to 2000 | > 10000 | 1000 to 10000 | 1000 to 10000 | ≥ 10000 | –
CC(C)(C)[C@H](NC(=O)C(F)(F)F)C(=O)N1C[C@H]2[C@@H]([C@H]1C(=O)N[C@H](C#N)C[C@@H]1Oc3ccccc3NC1=O)[C@H]1C=C[C@@H]2C1 [Compound 52, (1S,3aR,4S,7R,7aS)-N-((S)-1-cyano-2-((S)-3-oxo-3,4-dihydro-2H-benzo[b][1,4]oxazin-2-yl)ethyl)-2-((S)-3,3-dimethyl-2-(2,2,2-trifluoroacetamido)butanoyl)-2,3,3a,4,7,7a-hexahydro-1H-4,7-methanoisoindole-1-carboxamide] | < 20 | > 10000 | 100 to 1000 | 100 to 1000 | ≥ 10000 | –

Reference: US12252481B2, “Anti-viral compounds” (Aligos Therapeutics, Inc., priority 2021, dated 2025)
